Legend:
RS4-11 (MLL-AF4) cells = experiment: Example 7 retest: EPZ-5676 pre-treatment, second compound 72 h, Cell Titer Glo, growth inhibition; type: cell-based; parameters: GI100: unit not given here; conditions: RS4-11 (MLL-AF4), Ras mutation status: None known, second compound, 72 h; for GI50: Homo sapiens
Protocol: (§1) Cells were then treated with a second compound for 72 hours. After this time, plates were developed for endpoint analysis using Cell Titer Glo to measure ATP content, which is used as an indicator of cell viability.
(§2) “N/D” means the GI100 of the second compound could not be determined for both conditions and “-” means not tested.
(§3) Growth Inhibition (GI) as a measure of cell viability: The cell viability of vehicle was measured at the time of dosing the second agent (T0) and after seventy-two hours (T72). […] A GI 200% represents complete death of all cells in the culture well. Compounds reaching an activity plateau of GI 200% are considered cytotoxic. GI is calculated by applying the following test and equation: […]

ML-2 (MLL-AF6) cells = experiment: as above; type: cell-based; parameters: GI100: unit not given here; conditions: ML-2 (MLL-AF6), KRAS A146T (het); for GI50 / GI100: second compound, 72 h
Protocol: as §1, §2, §3

THP-1 (MLL-AF9) cells = experiment: as above; type: cell-based; parameters: GI100: unit not given here; conditions: NRAS G12D
Protocol: as §1, with “Cells were split using EPZ-5676 or DMSO containing growth media and further incubated for an additional 3-day pre-treatment time. Cells were finally seeded in growth media containing EPZ-5676 or DMSO in 96-well plates. Cells” for “Cells”
as §2
as §3, with “(T72). A GI reading of 0% represents no growth inhibition—cells treated with test compound as compared to T72 vehicle signals were measured.” for “(T72).”

[1] = system: OCI-AML-4 (MLL-ENL) cells; experiment: as above; type: cell-based; conditions: OCI-AML-4 (MLL-ENL); for Combination result with EPZ-5676, Retest: 300 nM EPZ-5676 pre-treatment vs DMSO; for Result (combination with EPZ-5676) / GI50 / GI100: NRAS Q61R (het); for GI50 / GI100: second compound, 72 h
Protocol: as §1, §2, §3

SKM-1 (non-MLLr) cells = experiment: as above; type: cell-based, human; parameters: GI100: unit not given here; conditions: SKM-1 (non-MLLr); for Combination result with EPZ-5676, Retest: 300 nM EPZ-5676 pre-treatment vs DMSO; for Result (combination with EPZ-5676) / GI50 / GI100: KRAS K117N (homo); for GI50 / GI100: second compound, 72 h
Protocol: as §1, §2, §3

MOLM-13 (MLL-AF9) cells = experiment: as above; type: cell-based, human; parameters: GI100: unit not given here; conditions: MOLM-13 (MLL-AF9); for GI50: Homo sapiens; for GI50 / GI100: second compound, 72 h
Protocol: as §1, §2, §3

MOLM-13 cells = experiment: Example 6 combination screen: 300 nM EPZ-5676 pre-treatment, second compound 72 h, ATPLite, IC50 shift; type: cell-based, human; conditions: 300 nM EPZ-5676 pre-treatment (4 + 3 days) vs DMSO, then 2nd compound 72 h, IC50 shift of 2nd compound
Protocol: as §1, with “equilibrated in incubators for 24 hours before treatment with a second compound. Treated assay plates were incubated” for “treated”, “ATPLite” for “Cell Titer Glo”
(§4) “N/D” means that IC50 of the second compound could not be determined for both conditions.

MV4-11 (MLL-AF4) cells = experiment: Combination proliferation assay with Compound A2 (CellTiter-Glo, Chou-Talalay CI); type: cell-based, human; conditions: MV4-11 (MLL-AF4); 7 Day Cotreatment Model
Protocol: The acute myelogenous leukemia cell lines MV4-11 (MLL-AF4) and MOLM-13 (MLL-AF9) were obtained from American Type Culture Collection (ATCC; Rockville, Md.) and Deutsche Sammlung von Mikroorganismen and Zellkulturen (DSMZ; Braunschweig, Germany) respectively.
(§5) Studies were performed using MLL-rearranged cell lines in vitro to evaluate the anti-proliferative effect of a combination of two agents together on cell growth. Initial proliferation studies were performed to determine the IC50 of a given compound in each cell line. The cell counts were measured by ATP quantitation using the Promega Cell Titer Glo kit and luminescence values corresponded to the amount of ATP in a given well.
Compounds were evaluated for synergy in the co-treatment phase by testing the compounds in a concentration range which was bracketed around their IC50 values. The compounds were plated to a 96 well plate in a matrix format (FIG. 3) which includes increasing concentrations of each drug in the combination in a constant ratio, in addition to the effect of each compound alone in the study. Cells were seeded and grown in the log-linear phase for 3 or 7 days in the co-treatment phase. Minimum inhibition (DMSO alone) controls were used in each plate to calculate fraction affected (Fa) of a test well. DMSO concentration was kept at 0.1% v/v.
The drug combination analysis was performed utilizing the Chou-Talalay method Synergy was determined using the software package Calcusyn by Biosoft. The combination index (CI) is a quantitative term used to describe the level of synergy or antagonism in a given test system. A combination index less than one indicates synergy, and a CI greater than one indicates antagonism. Further, strong synergism is achieved when the CI value falls below 0.3.
The HP-D300 digital dispenser (Tecan) was used to dispense compounds in a combinatorial matrix. […] Cell viability was measured via ATP content using CellTiter-Glo® (Promega).
Viability was determined using CellTiter-Glo® (Promega).
as §5, with “Proliferation studies” for “Studies”, “MOLM-13, MV4-11 and SKM-1” for “MLL-rearranged”, “cancer cell killing” for “anti-proliferative”, “IC50 values” for “IC50”, “correspond” for “corresponded”
These studies were performed to evaluate both the combinatorial effect of compounds on cell killing and the durability of the effect by washing out one of the agents.
Compounds evaluated for synergy in the co-treatment phase were tested in a range which was bracketed around the IC50's. The compounds were plated to a 96 well plate in a matrix format which includes increasing concentrations of each drug in the combination in a constant ratio, in addition to the effect of each compound alone in the study. Cells were seeded and grown in the log-linear phase for 3 or 7 days in the cotreatment phase. Maximum and minimum inhibition (DMSO alone) controls were used in each plate to calculate fraction affected (Fa) of a test well. DMSO concentration was kept at 0.1% v/v. The drug combination analysis was performed utilizing the Chou-Talalay method. Synergy was determined using the software package Calcusyn by Biosoft. The combination index (CI) is the term used to describe the level of synergy or antagonism in a given test system. A combination index less than one indicates synergy, and a CI greater than one indicates antagonism.
The drug combination analysis was performed using the Chou-Talalay method. Graphs representing values of combination index (CI) versus Fractional effect (Fa) known as Fa-CI plots were generated and synergy was evaluated. Drug synergy was statistically defined by CI values less than 1, antagonism by CI>1 and additive effect by CI equal to 1.

SKM-1 cells = experiment: Example 6 combination screen: 300 nM EPZ-5676 pre-treatment, second compound 72 h, ATPLite, IC50 shift; type: cell-based, human; conditions: SKM-1 cells; 300 nM EPZ-5676 pre-treatment (4 + 3 days) vs DMSO, then 2nd compound 72 h; ATPLite; IC50 shift of 2nd compound
Protocol: as §1, with “equilibrated in incubators for 24 hours before treatment with a second compound. Treated assay plates were incubated” for “treated”, “ATPLite” for “Cell Titer Glo”
as §4

[2] = Ras mutation status: None known

GI50 (RS4-11 (MLL-AF4) cells) | GI50 (THP-1 (MLL-AF9) cells) | GI50 [1] | GI50 (SKM-1 (non-MLLr) cells) | GI50 (MOLM-13 (MLL-AF9) cells; [2]) | SMILES | GI100 (RS4-11 (MLL-AF4) cells) | GI50 (ML-2 (MLL-AF6) cells) | GI100 (ML-2 (MLL-AF6) cells) | GI100 (THP-1 (MLL-AF9) cells) | Combination result with EPZ-5676, Retest [1] | Result (combination with EPZ-5676) [1] | GI100 [1] | Combination result with EPZ-5676, Retest (SKM-1 (non-MLLr) cells) | Result (combination with EPZ-5676) (SKM-1 (non-MLLr) cells) | GI100 (SKM-1 (non-MLLr) cells) | GI100 (MOLM-13 (MLL-AF9) cells; [2]) | Summary of Combination Studies: MOLM-13 (MOLM-13 cells) | Summary of Combination Studies: SKM-1 (SKM-1 cells) | other results
1300 nM | 2850 nM | 904 nM | 270 nM | 3080 nM | Cn1nccc1Nc1nccc(-c2ccn([C@H](CO)c3ccc(Cl)c(F)c3)c(=O)c2)n1 [GDC0994] | 2.505 | 590 nM | 2.55 | >10 | Synergy (considered synergistic if the GI100 (Growth inhibition 100) value of the second compound decreased by 2-fold or more when EPZ-5676 was added as compared to the DMSO control) | Synergy (considered synergistic if the GI100 (Growth inhibition 100) value of the second compound decreased by 2-fold or more when EPZ-5676 was added as compared to the DMSO control) | 3.068 | Synergy (considered synergistic if the GI100 (Growth inhibition 100) value of the second compound decreased by 2-fold or more when EPZ-5676 was added as compared to the DMSO control) | Synergy (considered synergistic if the GI100 (Growth inhibition 100) value of the second compound decreased by 2-fold or more when EPZ-5676 was added as compared to the DMSO control) | 1.84 | 4.26 | – | – | –
> 10000 nM | 90 nM | 59 nM | 10 nM | 720 nM | Cn1cnc2c(F)c(Nc3ccc(Br)cc3F)c(C(=O)NOCCO)cc21 [Binimetinib (MEK-162), Binimetinib] | >10 | 30 nM | 0.50 | >10 | Synergy (considered synergistic if the GI100 (Growth inhibition 100) value of the second compound decreased by 2-fold or more when EPZ-5676 was added as compared to the DMSO control) | Synergy (considered synergistic if the GI100 (Growth inhibition 100) value of the second compound decreased by 2-fold or more when EPZ-5676 was added as compared to the DMSO control) | 1.504 | Synergy (considered synergistic if the GI100 (Growth inhibition 100) value of the second compound decreased by 2-fold or more when EPZ-5676 was added as compared to the DMSO control) | Synergy (considered synergistic if the GI100 (Growth inhibition 100) value of the second compound decreased by 2-fold or more when EPZ-5676 was added as compared to the DMSO control) | 0.07 | 3.96 | – | – | Result (combination with EPZ-5676) (ML-2 (MLL-AF6) cells): Synergy (considered synergistic if the GI100 (Growth inhibition 100) value of the second compound decreased by 2-fold or more when EPZ-5676 was added as compared to the DMSO control); Combination result with EPZ-5676, Retest (MOLM-13 (MLL-AF9) cells; 150 nM EPZ-5676 pre-treatment vs DMSO): Synergy (considered synergistic if the GI100 (Growth inhibition 100) value of the second compound decreased by 2-fold or more when EPZ-5676 was added as compared to the DMSO control); Result (combination with EPZ-5676) (MOLM-13 (MLL-AF9) cells; [2]): Synergy (considered synergistic if the GI100 (Growth inhibition 100) value of the second compound decreased by 2-fold or more when EPZ-5676 was added as compared to the DMSO control)
– | – | – | – | – | O=C(Nc1ccccc1-c1cn2c(CN3CCNCC3)csc2n1)c1cnc2ccccc2n1 [SRT-1720] | – | – | – | – | – | – | – | – | – | – | – | Synergy (considered synergistic if the IC50 value of the second compound decreased by 2-fold or more when EPZ-5676 was added as compared to the DMSO control) | – | Combination effect with Compound A2 (Table 4) (MV4-11 (MLL-AF4) cells): Synergy (Drug synergy was statistically defined by CI values less than 1)
– | – | – | – | – | COc1cc2c(NC3CCN(C4CCCCC4)CC3)nc(N3CCCN(C(C)C)CC3)nc2cc1OCCCN1CCCCC1 [UNC 0646] | – | – | – | – | – | – | – | – | – | – | – | Synergy (considered synergistic if the IC50 value of the second compound decreased by 2-fold or more when EPZ-5676 was added as compared to the DMSO control) | Synergy (considered synergistic if the IC50 value of the second compound decreased by 2-fold or more when EPZ-5676 was added as compared to the DMSO control) | –
– | – | – | – | – | COc1ccc(-c2ccc3c(N4CCOCC4)nc(N4C[C@@H](C)O[C@@H](C)C4)nc3n2)cc1CO [KU 0063794] | – | – | – | – | – | – | – | – | – | – | – | Synergy (considered synergistic if the IC50 value of the second compound decreased by 2-fold or more when EPZ-5676 was added as compared to the DMSO control) | Synergy (considered synergistic if the IC50 value of the second compound decreased by 2-fold or more when EPZ-5676 was added as compared to the DMSO control) | –

Source: patent publication US20190083521A1, “COMBINATION THERAPY FOR TREATING CANCER” (Epizyme, Inc., priority 2014, published 2019)
